Data on three compounds can be found in patent US20070026402A1, “Genetic marker of response to atypical antipsychotics and antidepressants methods for use thereof” (priority 2003, published 2007).

Entries after “also recorded” stand apart in the source; their conditions may differ.

Series [1] concerns PTSD patients. In words: General Health Questionnaire-28 (GHQ) outcome of paroxetine treatment in PTSD. Type of series: in vivo, human. The following applies: for GHQ total score, baseline vs treatment: 8 weeks. From the text: Sixty-five unrelated male Caucasian patients with the diagnosis of PTSD were recruited for study. All subjects were Vietnam combat veterans who had served in the Australian armed forces. None were being treated with psychotropic medication. […] confirmed by all patients exceeding the clinical cut-off score of 94 on the Mississippi Scale for combat-related posttraumatic stress disorder (Zatzick et al., 1997). The validity and reliability of the Mississippi scale ate well established in veterans (Keane et al., 1988). Patients then underwent clinical history taking by a psychiatrist or by a clinical nurse (EP). Demographic data and ethnic background were also obtained. […] The General Health Questionnaire-28 (GHQ) was administered at baseline (0-7 days on paroxetine) and at the end of treatment (8 weeks after commencement on paroxetine). This questionnaire measures four psychopathological factors particularly relevant to PTSD and its comorbid psychiatric conditions: somatic concerns (GHQ1), anxiety/insomnia (GHQ2), social dysfunction (GHQ3) and depression (GHQ4). The GHQ has been widely validated internationally as a means of detecting psychiatric […] sensitive to change (Ormel et al., 1989). The GHQ has utility as a follow-up measure of veteran mental health following exposure to combat (Deahl et al., 1994) and is sensitive to changes in combat-related PTSD symptoms (Ward, 1997). Information coded from the interviews, GHQ and genotyping results were entered into a computer database. Nominal data were analyzed by Yates corrected X^2 test and continuous data, with repeated measures, were analyzed by paired t-test or by analysis of variance. P values≦0.05 were considered statistically significant.

The subject of series [2] is PTSD patients. The experiment in a line: Discontinuation and adverse events during paroxetine treatment in PTSD. The conditions noted are these: for Subjects with adverse events relating to anxiety, insomnia, headache or tremor / Subjects with erectile dysfunction, decreased libido or delayed ejaculation: group that discontinued. Type of series: in vivo, human. On the procedure: Sixty-five unrelated male Caucasian patients with the diagnosis of PTSD were recruited for study. All subjects were Vietnam combat veterans who had served in the Australian armed forces. None were being treated with psychotropic medication.
After initial assessment, patients were medically examined and then were started on 20 mg/day of paroxetine for the first two weeks followed by a 40 mg/day dose for the remaining six weeks.
Patient assessments were conducted blind to their DRD2 allelic status. In addition to their standard treatment, patients were monitored twice for adverse events. Drug compliance was checked by pill count. All participants provided written informed consent and were able to terminate treatment without prejudice. However, those terminating participation were asked to provide reasons for their withdrawal. Institutional ethics approval was obtained from the Greenslopes Private Hospital.

Another series relates to PTSD. The following applies: compared to 32% with placebo; cited from earlier work.

On to `CN1CCN(C2=Nc3cc(Cl)ccc3Nc3ccccc32)CC1` [Clozapine], for which the “Number of patients exceeding hyperprolactinemia cut-off levels” value with Serum prolactin (Clozapine and Olanzapine patients combined) is recorded as 7. Besides, in the series on Serum prolactin (Clozapine and Olanzapine patients combined, sample of 144), the “Hyperprolactinemic patients as share of the sample” value was found to be 5%. Also, in the series with Serum prolactin (P=0.04), the “Prolactin levels in A1+ compared to A1− allelic patients” value is on record as “more than two fold higher”.
In the case of `Fc1ccc([C@@H]2CCNC[C@H]2COc2ccc3c(c2)OCO3)cc1` [paroxetine], the “GHQ3 (social dysfunction) subscale score over the course of treatment” value with PTSD patients [1] (A1+ allelic subjects) is listed as “significant improvement”; in the series with PTSD patients [1] (A1− allelic subjects) it was “no such improvement”; in the series with PTSD patients [1] (total patient group) it was “significant improvement”. Besides, the entries for the “GHQ total score, baseline vs treatment” value in the series on PTSD patients [1] (A1− patients) and in the series on PTSD patients [1] (total 45 patients) were “no significant improvement; also recorded: did not” and “significant improvement”, respectively. In the series on PTSD patients [1] (total patient group), the “GHQ1 (somatic concerns) subscale score over the course of treatment” value is given as “not significantly reduced”. In addition, the “GHQ2 (anxiety/insomnia) subscale score over the course of treatment” value with PTSD patients [1] (total patient group) is “significantly reduced”. Further, the “GHQ4 (depression) subscale score during treatment” value with PTSD patients [1] (total patient group) is “significant improvement”. The “Number of patients who discontinued treatment” value with PTSD patients [2] (A1+ (of 26)) stood at 4; in the series on PTSD patients [2] (A1− (of 39)), 16; with PTSD patients [2] (of the 65 patients who entered the study) it was 20. Further, the figures for the “Subjects with adverse events relating to anxiety, insomnia, headache or tremor” value in the series with PTSD patients [2] (A1+) and in the series with PTSD patients [2] (A1−) were 2 and 11, respectively. In addition, the “Subjects with erectile dysfunction, decreased libido or delayed ejaculation” value in the series with PTSD patients [2] (A1+) is reported as 2; with PTSD patients [2] (A1−) it was 5.
Take `CN[C@H]1CC[C@@H](c2ccc(Cl)c(Cl)c2)c2ccccc21` [sertraline]: the Responder rate in the series on PTSD is listed as 53%.
